Source: PubChem BioAssay AID743230

Molecular target: cofactor-independent phosphoglycerate mutase (iPGM), Brugia malayi / Caenorhabditis elegans
Assay: nematode iPGM enzyme inhibitors, biochemical, cofactor-independent, HTS (AID 743230)
Conditions: recombinant nematode iPGM, coupled NADH absorbance decline

Q: Which IC50 does the source give for `CCc1cc2c[n+](C3CCCCC3)sc2s1` here?
A: 10.4 µM

Q: With `Nc1cc2cccnc2c2ncccc12` as the compound, how does the IC50 read?
A: 38.3 µM
